Reference: patent publication US7388006B2, “Non-steroidal progesting” (Bayer Schering Pharma AG, priority 2002, dated 2008)

Experiments:
PR-A = type: cell-based; conditions: PR-A efficacy minus PR-B efficacy
Description: The method for screening for PR isoform-specific progestins according to the present invention is carried out with first and second SK-N-MC cells stably transfected with a plasmid expressing the HPR-A (first cells) or the hPR-B (second cells) and the LUC reporter gene linked to the hormonally responsive MTV promoter.
The cells are cultured in Minimum Essential Medium with Earl's Salts (S-MEM, without L-glutamine; Gibco BRL, no. 21090-022), supplemented with 10% fetal calf serum (FCS), penicillin 100U/streptomycin 100 μg/ml (Biochrom, no. A2213), L-glutamine 4 mmol/l (Gibco BRL, no. 25030-024), sodium pyruvate 1 mmol/l (Biochrom, no. L0473) and 1×non-essential amino acids (Biochrom, no. K0293) at a temperature of 37° C. and in an atmosphere of 5% carbon dioxide.
For the transcription assay, the cells are seeded onto 96-well dishes (2×10^4 cells/dish) and cultured in a medium as described above, with the exception that the FCS is replaced by a 3% charcoal stripped FCS. 48 hours later, cells are contacted with prediluted test compounds. For determination of agonistic activity, cells are cultured in the presence of 6 increasing concentrations (10^−6 to 10^−11 mol/l) of test progestins. As a positive control for reporter gene induction cells are treated with 10^−6 to 10^−11 mol/l R5020 (promegestone). As a negative control for reporter gene induction, cells are cultured in 1% ethanol.
After incubation with test progestins for 24 hours, the medium is removed and cells are lysed with 20 μl of lysis buffer (Luciferase Assay System E 153A; Promega) and under agitation of the plate for 101 min. After addition of 30 μl of luciferase reagent (Luciferase Assay System E 151A+152A; Promega) within 30 seconds per plate, the activity of the luciferase reporter gene product is determined in the cell lysates by means of a Microlite ML 3000 microtiter plate luminometer (Dynatech) in cycle mode.
Evaluation of the response gives the efficacy [%], and evaluation of the EC50s values gives the potency [nM]. Calculation of the agonistic activity is conducted as follows:
The LUC activity [%] for the measured data points is calculated as follows:
[formula] wherein CI=100% stimulation (R5020, 10^−7 mol/l) and CO=0% stimulation (ethanol, 1%).
Thus, the efficacy [%] is calculated according to: […]
The potency [nM], i.e. the EC50, is determined graphically.

rat mammary epithelium = test: MIB-5 immunohistochemistry, proliferation of the mammary epithelium; type: in vivo; conditions: 0.3 mg/kg/d, FIG. 2
Description: In order to determine the effects of test progestins according to the present invention, in particular compound ((+)-1), in mammary gland differentiation and proliferation, premature female rats (Wistar Han, SPF) are ovariectomized at the age of 21 days, 4 to 6 days before treatment start. The animals are treated for 6 days with standard estrogen (estrone (E1), 70 μg/kg) and the test progestin ((+)-1) (application volume: 0.1 ml/50 g body weight; vehicle: benzylbenzoate/castor oil (1+4 v/v); subcutaneous). Control groups are e.g.: vehicle, estrone without progestin, estradiol together with a known progestin, e.g. R5020 (promegestone). After the 6-day treatment the animals are killed with carbon dioxide.
For the whole mount staining, animals are shaved in the left abdominal inguinal mammary region, which is cut from the body together with the skin. For the histological/immunohistochemical analyses the right abdominal inguinal mammary gland is cut from the body together with the connective-tissue adhered thereto and fixed in 3.7% formalin in PBS (phosphate buffer saline; without Ca^2+/Mg^2+).
For a more detailed evaluation of the proliferation of the mammary epithelium, cells are stained with the proliferation marker MIB-5 as follows (cf. FIG. 2): Mammary glands are fixed in 4% formaldehyde/PBS for 24 h and embedded in paraffm. 4 μm sections are spread on slides, deparaffinized, treated with microwaves for 10 min. in citrate buffer pH 6.0 and rinsed with PBS. Slides are then blocked with 3% H2O2/methanol for 15 min., Blockingkit (Vektor, no. SP-2001) for 10 min. and rat serum (Sigma, no. S-7648) diluted 1:2 in PBS for 30 min to reduce nonspecific staining and rinsed in PBS. Slides are incubated for 1 hour with monoclonal antibody MIB-5 (Dianova, no. Dia-5055), which is specific for the rat Ki-67 antigen (1:200 diluted in PBS/0.2% BSA). […]
In order to characterize a test compound, the percentage of MIB-5 stained mammary epithelium cells is determined. […]

[1] = tested on: pregnancy in ovariectomized rats; test: Pregnancy maintenance test in rat; type: in vivo; conditions: ovariectomized pregnant rats, with estrone
Text: In rats, castration induces termination of pregnancy. Progestins (combined with estrogens) are capable of maintaining pregnancy in castrated animals. However, the degree of pregnancy maintenance in castrated rats is optimal only in a defined dose range. Therefore, higher as well as lower doses generally induce a weaker effect. Accompanying treatment with defined doses of estrone (E1) increases the pregnancy maintaining effect of progestins.
Pregnant rats (Wistar Han, SPF) of 190 to 220 g (5 to 8 animals per dose) are ovariectomized on day 8 of pregnancy, 2 hours after the first substance administration. From day 8 to day 14, rats are daily treated with test progestin in combination with a standard dose of E1. One day later, animals are killed with carbon dioxide. For each animal, the number of living and dead fetuses is determined according to the heartbeat of the embryos. In case of empty uteri, the number of implantation sites is determined by means of staining with a 10% ammonium sulfide solution.
S.c. (subcutaneous) application: The test progestin is dissolved in benzyl benzoate/castor oil (1+4 v/v), and the daily dose is administered in a volume of 1 ml/kg body weight.
P.o. (peroral) application: The test progestin is suspended in a carrier liquid (85 mg Myrj^R in 100 ml 0.9% w/v NaCl solution), and the daily dose is administered in a volume of 2 ml/kg body weight.
I.p. (intraperitoneal) application: The test progestin is dissolved in propylene glycol and charged in miniature osmotic pumps (type 2001, 1.0 μl/h, 7 days), which are placed in the abdominal cavity of the rat.
The standard dose of estrone is 0.005 mg/kg body weight s.c. and is dissolved in benzyl benzoate/castor oil ([…]).
It is determined the pregnancy maintenance per animal [%], the pregnancy maintenance per dose (median of single values) and the EC50 (dose, at which pregnancy is maintained in 50% of the animals; 100% corresponds to control animals that are not ovariectomized). The results of the test are further discussed below in c).

Compound	Δ agonism efficacies (A-B) (PR-A)	further results
Cc1noc(=O)c2ccc(NC(=O)C(C)(O)CC3(c4cccc(C(F)(F)F)c4)CC3)cc12 (single isomer, unassigned; (+)) [((+)-3), (+)-6-{2-hydroxy-3-[1-(3-trifluoromethylphenyl)-cyclopropyl]-2-methyl-propionylamino}-4-methyl-2,3-benzoxazin-1-one]	23	
O=C1OCc2cc(NC(=O)C(O)(CC3(c4cccc(C(F)(F)F)c4F)CC3)C(F)(F)F)ccc21 (single isomer, unassigned; (+)) [((+)-4), (+)-5-{2-hydroxy-3-[1-(2-fluoro-3-trifluoromethylphenyl)-cyclopropyl]-2-trifluoromethyl-propionylamino}-phthalide]	18	
Cc1noc(=O)c2ccc(NC(=O)C(O)(CC3(c4cccc(C(F)(F)F)c4F)CC3)C(F)(F)F)cc12 (single isomer, unassigned; (+)) [((+)-2), (+)-6-{2-hydroxy-3-[1-(2-fluoro-3-trifluoromethylphenyl)-cyclopropyl]-2-trifluoro-methyl-propionylamino}-4-methyl-2,3-benzoxazin-1-one]	32	
Cc1noc(=O)c2ccc(NC(=O)C(C)(O)CC3(c4cccc(C(F)(F)F)c4)CC3)cc12 (single isomer, unassigned; (-)) [((−)-3), (−)-6-{2-Hydroxy-3-[1-(3-trifluoromethylphenyl)-cyclopropyl]-2-methyl-propionylamino}-4-methyl-2,3-benzoxazin-1-one]		melting point: 129 to 130 °C
CCC(=O)[C@@]1(C)CC[C@H]2[C@@H]3CCC4=CC(=O)CCC4=C3CC[C@@]21C [R5020, promegestone, reference compound]		MIB-5 positive cells (rat mammary epithelium): ~42%; Maintenance of pregnancy (rat) [EC50] [1]: 0.1 mg/kg/day
